From patent US20110319346A1, “ELECTROSTATIC PROTEIN/GLUCOSINOLATE COMPLEXES” (NESTEC S.A., priority 2009, published 2011)

Columns and labels:
[1] = Emulsifying properties: 10% oil-in-water emulsions, stability to creaming and flocculation; format: physicochemical; conditions: 10% oil-in-water emulsion, pH 4.0, without or with heat treatment
Experimental: Emulsifying properties of samples at pH 4.0 (prepared as described in example 1) were evaluated by preparing emulsions containing 10% (w/w) of “high oleic” sunflower oil (Oleifico SABO, Manno, Switzerland). Samples with SIN to BLG molar ratio 10 with or without heat treatment were diluted to 0.25 mM BLG and mixed with oil in a Pyrex® tube (D 25 mm, V 35 mL) to a final weight of 20 g. They were pre-homogenized using an Ultra Turrax® T25 equipped with a S25N-10G dispersing head (IKA-Werke, Staufen, Germany) rotating at 16,000 rpm for 1 minute. Homogenization of emulsions was completed using an ultrasonic processor (Hielscher UP400S, power 400 W, frequency 24 kHz) and a sonotrode (diameter 7 mm, approx. length 100 mm, titanium) at room temperature for 75 seconds and 75% amplitude of the ultrasound maximal power. This emulsification time was enough to disperse the oil in small droplets and to avoid excessive heating of the sample. […] Stability of emulsions to creaming and flocculation was followed over 26 days of storage at 4° C.

β-lactoglobulin (BLG) = target: T1, β-lactoglobulin (BLG) (Bos taurus, UniProt P02754); assay: Binding curve of sinigrin to β-lactoglobulin (ultrafiltration, SEC of free SIN); parameters: species or system bovine; conditions: for number of maximum binding sites (nmax): SIN to BLG, acidic conditions (pH 4.0), 25° C.
T1 construct: The composition in the major whey protein fraction was 89.22% BLG; purchased Davisco Biopure, lot JE 001-3-922
T1 sequence (P02754 17-178): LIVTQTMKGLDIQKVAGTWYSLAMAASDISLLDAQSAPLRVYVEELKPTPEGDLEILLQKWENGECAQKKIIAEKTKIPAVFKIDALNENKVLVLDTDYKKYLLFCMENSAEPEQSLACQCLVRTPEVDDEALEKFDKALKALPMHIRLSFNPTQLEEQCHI
Experimental: β-Lactoglobulin (BLG) powder was dispersed in Millipore® water by stirring at room temperature for 1 hour. The protein powder was purchased from Davisco (Biopure, lot JE 001-3-922). The protein content was 93.5 g/100 g of powder, as determined by Kjeldahl analysis (N×6.38). The composition in the major whey protein fraction was 89.22% BLG, 6.91% […], 3.87% bovine serum albumin, as determined by reversed phase HPLC(RP-HPLC); 0.2% fat, 1.5% ash and 4.9% moisture, as specified by the supplier. The mineral composition was as follows: 0.87% Na^+, <0.004% K^+, <0.04% Cl^−, 0.019% Ca^2+, 0.053% P, 0.002% Mg^2+, as determined by atomic absorption spectroscopy.
Concentration of the BLG in the protein solution was 1 mM (1.84% w/w). It was stored overnight at 4° C. to allow hydration. The next day, the protein dispersion was filtered using a Stericup filtration system (Millipore®) with 0.22 μm GP Express Plus membrane. The filtered dispersion (pH 7.2) was either used directly for sample preparation, or it was previously acidified to pH 4.0 using 1M HCl. The amount of 1M HCl added in the latter case was about 1% of the total volume.
The glucosinolate solution was prepared on the day of the experiment by dissolving sinigrin (SIN) in Millipore® water to obtain a concentration 20 or 40 mM (0.83. or 1.66% w/w). Sinigrin hydrate (allyl glucosinolate) 99%, was purchased from Sigma (lot 1291054). For the experiments under acidic conditions, SIN solution was acidified to pH 4.0. The amount of 1M HCl added in the latter case was about 1% of the total volume. […]
After incubation, 2×1.5 mL of mixtures were centrifuged using Centrisart® I centrifugal ultrafiltration units with cellulose triacetate ultrafilters having molecular weight cut-off of 10 kDa (Sartorious, Germany) in a Sorvall RC 3C PLUS centrifuge with a swing bucket rotor (Thermo, Switzerland), for 30 min at 2900×g. Ultrafiltrates were collected, diluted 10 times in Millipore® water, and then analyzed by size exclusion HPLC (SEC) to determine the amount of free (unbound) SIN in each sample. […]

Compound: C=CC/C(=N\OS(=O)(=O)[O-])S[C@@H]1O[C@H](CO)[C@@H](O)[C@H](O)[C@H]1O.O.[K+] [SIN, Sinigrin hydrate (allyl glucosinolate)]
- ability to produce a stable oil/water emulsion [1]: not able to produce a stable oil/water emulsion
- number of maximum binding sites (nmax) (β-lactoglobulin (BLG); with heat treatment (85° C., 15 min)): 8.71
- number of maximum binding sites (nmax) (β-lactoglobulin (BLG); without heat treatment): 15.4
- amount of bound SIN to BLG (β-lactoglobulin (BLG); pH 4.0 compared to 7.2): much higher at pH 4.0 compared to 7.2
